According to patent US12479895B2, “C-terminal CDNF and MANF fragments, pharmaceutical compositions comprising same and uses thereof” (MyNeuroCure Oy, priority 2018, dated 2025):

How the values were obtained:
[1] = tested on: ER stressed SCG neurons; experiment: Survival of tunicamycin-treated (ER stressed) SCG sympathetic neurons after microinjection; format: cell-based, mice; conditions: for survived neurons as % compared to neurons grown in the presence of NGF: Table 1A (FIG. 14), microinjected into cytoplasm, tunicamycin 2 μM, CDNF (400); for Fold change of survived neurons compared to neurons injected with PBS: data of Table 1 divided by values of PBS
Experimental: Non-neuronal cells were removed by extensive preplating. Almost pure neurons were cultured in polyornithine/laminin (Sigma)-coated 35-mm plastic dishes in the small-size standard microislands in the Neurobasal medium and B27 supplement (Invitrogen/Gibco) in the presence of 30 ng/ml mouse nerve growth factor (NGF) (Promega) for 5-6 days. NGF was deprived by extensive washing and addition of the function-blocking anti-NGF antibodies (Roche). The neurons were pressure-microinjected with special neuronal microinjection equipment (Hellman et al., 2011; Hamner et al., 2001; Lindholm et al., 2002; Sun et al., 2001; Yu et al., 2003)(Sun et al., 2001; Sun et al., 2003). For the survival assay, all neurons on the microislands were counted in the beginning (initial number) and the end (three days) of the experiment and expressed as % of initial.
Microinjection of the sympathetic neurons was performed as described earlier (Yu, L. Y., Jokitalo, E., Sun, Y. F., Mehlen, P., Lindholm, D., Saarma, M., and Arumae, U. (2003) J Cell Biol. 163, 987-997). Plasmids for CDNF have been described earlier. Briefly, newborn mouse SCG neurons were grown with NGF (Promega) for 5-6 days then the nuclei were microinjected with the expression plasmids for full-length (FL)-CDNF and C-CDNF together with a reporter plasmid for enhanced green fluorescent protein (EGFP), using vector concentration of 10 ng/ul in each experiment. […] For protein microinjection, recombinant full length (FL)-CDNF, C-CDNF proteins in PBS at 200 ng/ul were microinjected directly into the cytoplasm together with fluorescent reporter Dextran Texas Red (MW 70000 Da) (Invitrogen, Molecular Probes) that facilitates identification of the successfully injected neurons. Next day tunicamycin (2 μM) was added, and after 3 days the living fluorescent neurons were counted. Living fluorescent (EGFP-expressing or Dextran Texas Red-containing) neurons were “blindly” counted three days later and expressed as percent of initial living fluorescent neurons counted 2-3 hours after microinjection. The experiments with plasmids were repeated on independent cultures 5 times for plasmid experiment, whereas four independent protein injection experiments were performed. On average, 50-80 neurons were successfully injected per experimental group. The results were expressed as the mean±the SEM. Data of each experimental group was compared with control plasmid PCR3.1 (vector) or PBS (in the protein injection experiments) by one-way ANOVA and post hoc Dunnett's t test. The null hypothesis was rejected at p<0.05.

[2] = tested on: dopamine neurons; experiment: Survival of TH-positive dopamine neurons in dissociated midbrain floor cultures; format: cell-based, mouse; conditions: for survived neurons as % compared to neurons grown in the presence of GDNF: Table 3A (FIG. 15), 5 days; for Fold change of survived neurons compared to neurons grown without growth factors: data of Table 3 divided by values of no factor
Experimental: To study the dopamine neurons (Yu et al., 2008; Yu and Arumae, 2008), the midbrain floors were dissected from the ventral mesencephali of 13.5-d-old NMRI strain mouse embryos. Tissues were incubated with 0.5% trypsin (ICN Biomedical), then mechanically dissociated using a large fire-polished Pasteur pipette. The neurons were grown on the poly-L-ornithine-coated (Sigma) 96-well culture plates in DMEM/F12 medium (Invitrogen) containing N2 supplement (Invitrogen) in the presence or absence of GDNF (100 ng/ml) or with CDNF, MANF, C-CDNF and C-MANF polypeptides at different concentrations for five days. Same amount of the neurons were plated to each well at the beginning of the experiments. The cultures without added neurotrophic factors served as the negative control. As the midbrain cultures contain several neuronal types, the cultures were fixed and immunostained with the antibodies to tyrosine hydroxylase (TH) (Millipore), a specific marker for the dopaminergic neurons. Images of each well were scanned by CellInsight™ and immunopositive neurons were counted by CellProfiler and CellProfiler analyst software. Data are expressed as a percentage of GDNF-maintained TH-positive neurons. All experiments were repeated at least three times on the independent cultures. The results were expressed as the mean the SEM and were tested for the significance by either one-way ANOVA and Tukey's post hoc test or by two-tailed Student's t-test. The null hypothesis was rejected at P≤0.05.

| Sequence | survived neurons as % compared to neurons grown in the presence of NGF ([1]; AVG of exp1-2) [% NGF] | survived neurons as % compared to neurons grown in the presence of NGF ([1]; exp1, counted after 3 days) [% NGF] | survived neurons as % compared to neurons grown in the presence of NGF ([1]; exp2, counted after 3 days) [% NGF] | Fold change of survived neurons compared to neurons injected with PBS ([1]; Table 2, AVG) | Fold change of survived neurons compared to neurons injected with PBS ([1]; Table 2, exp1) | Fold change of survived neurons compared to neurons injected with PBS ([1]; Table 2, exp2) | survived neurons as % compared to neurons grown in the presence of GDNF ([2]; AVG, 1 ng/ml) [% GDNF] | survived neurons as % compared to neurons grown in the presence of GDNF ([2]; AVG, 10 ng/ml) [% GDNF] | survived neurons as % compared to neurons grown in the presence of GDNF ([2]; AVG, 100 ng/ml) [% GDNF] | survived neurons as % compared to neurons grown in the presence of GDNF ([2]; AVG, 1000 ng/ml) [% GDNF] | survived neurons as % compared to neurons grown in the presence of GDNF ([2]; exp1, 1 ng/ml) [% GDNF] | survived neurons as % compared to neurons grown in the presence of GDNF ([2]; exp1, 10 ng/ml) [% GDNF] | survived neurons as % compared to neurons grown in the presence of GDNF ([2]; exp1, 100 ng/ml) [% GDNF] | survived neurons as % compared to neurons grown in the presence of GDNF ([2]; exp1, 1000 ng/ml) [% GDNF] | survived neurons as % compared to neurons grown in the presence of GDNF ([2]; exp2, 1 ng/ml) [% GDNF] | survived neurons as % compared to neurons grown in the presence of GDNF ([2]; exp2, 10 ng/ml) [% GDNF] | survived neurons as % compared to neurons grown in the presence of GDNF ([2]; exp2, 100 ng/ml) [% GDNF] | survived neurons as % compared to neurons grown in the presence of GDNF ([2]; exp2, 1000 ng/ml) [% GDNF] | survived neurons as % compared to neurons grown in the presence of GDNF ([2]; exp3, 1 ng/ml) [% GDNF] | survived neurons as % compared to neurons grown in the presence of GDNF ([2]; exp3, 10 ng/ml) [% GDNF] | also measured |
| --- | --- | --- | --- | --- | --- | --- | --- | --- | --- | --- | --- | --- | --- | --- | --- | --- | --- | --- | --- | --- | --- |
| TLDLASVDLRKMRVAELKQILHSWGEECRACAEKTDYVNLIQELAPKYA (listed as Homo sapiens) [pep4] | 79.15 | 81.25 | 77.05 | 2.16 Fold to PBS | 2.37 Fold to PBS | 1.94 Fold to PBS | 69.14 | 70.54 | 70.14 | 76.27 | 61.71 | 64.44 | 69.02 | 68.35 | 79.99 | 81.47 | 73.24 | 83.39 | 65.71 | 65.71 | survived neurons as % compared to neurons grown in the presence of GDNF ([2]; exp3, 100 ng/ml): 68.14 % GDNF; survived neurons as % compared to neurons grown in the presence of GDNF ([2]; exp3, 1000 ng/ml): 77.07 % GDNF; Fold change of survived neurons compared to neurons grown without growth factors ([2]; Table 4, AVG, 1 ng/ml): 1.12 fold; Fold change of survived neurons compared to neurons grown without growth factors ([2]; Table 4, AVG, 10 ng/ml): 1.14 fold; Fold change of survived neurons compared to neurons grown without growth factors ([2]; Table 4, AVG, 100 ng/ml): 1.14 fold; Fold change of survived neurons compared to neurons grown without growth factors ([2]; Table 4, AVG, 1000 ng/ml): 1.24 fold; Fold change of survived neurons compared to neurons grown without growth factors ([2]; Table 4, exp1, 1 ng/ml): 1.08 fold; Fold change of survived neurons compared to neurons grown without growth factors ([2]; Table 4, exp1, 10 ng/ml): 1.13 fold; Fold change of survived neurons compared to neurons grown without growth factors ([2]; Table 4, exp1, 100 ng/ml): 1.21 fold; Fold change of survived neurons compared to neurons grown without growth factors ([2]; Table 4, exp1, 1000 ng/ml): 1.20 fold; Fold change of survived neurons compared to neurons grown without growth factors ([2]; Table 4, exp2, 1 ng/ml): 1.27 fold; Fold change of survived neurons compared to neurons grown without growth factors ([2]; Table 4, exp2, 10 ng/ml): 1.29 fold; Fold change of survived neurons compared to neurons grown without growth factors ([2]; Table 4, exp2, 100 ng/ml): 1.16 fold; Fold change of survived neurons compared to neurons grown without growth factors ([2]; Table 4, exp2, 1000 ng/ml): 1.32 fold; Fold change of survived neurons compared to neurons grown without growth factors ([2]; Table 4, exp3, 1 ng/ml): 1.01 fold; Fold change of survived neurons compared to neurons grown without growth factors ([2]; Table 4, exp3, 10 ng/ml): 1.01 fold; Fold change of survived neurons compared to neurons grown without growth factors ([2]; Table 4, exp3, 100 ng/ml): 1.05 fold; Fold change of survived neurons compared to neurons grown without growth factors ([2]; Table 4, exp3, 1000 ng/ml): 1.19 fold |
| KYEKTLDLASVDLRKMRVAELKQILHSWGEECRACAEKTDYVNLIQELAP (listed as Homo sapiens) [pep7] | 80.76 | 76.67 | 84.85 | 2.19 Fold to PBS | 2.24 Fold to PBS | 2.14 Fold to PBS | 70.12 | 76.13 | 72.36 | 79.07 | 67.76 | 63.47 | 62.89 | 64.02 | 73.36 | 83.50 | 79.82 | 86.37 | 69.24 | 81.41 | survived neurons as % compared to neurons grown in the presence of GDNF ([2]; exp3, 100 ng/ml): 74.38 % GDNF; survived neurons as % compared to neurons grown in the presence of GDNF ([2]; exp3, 1000 ng/ml): 86.80 % GDNF; Fold change of survived neurons compared to neurons grown without growth factors ([2]; Table 4, AVG, 1 ng/ml): 1.14 fold; Fold change of survived neurons compared to neurons grown without growth factors ([2]; Table 4, AVG, 10 ng/ml): 1.23 fold; Fold change of survived neurons compared to neurons grown without growth factors ([2]; Table 4, AVG, 100 ng/ml): 1.17 fold; Fold change of survived neurons compared to neurons grown without growth factors ([2]; Table 4, AVG, 1000 ng/ml): 1.28 fold; Fold change of survived neurons compared to neurons grown without growth factors ([2]; Table 4, exp1, 1 ng/ml): 1.19 fold; Fold change of survived neurons compared to neurons grown without growth factors ([2]; Table 4, exp1, 10 ng/ml): 1.11 fold; Fold change of survived neurons compared to neurons grown without growth factors ([2]; Table 4, exp1, 100 ng/ml): 1.10 fold; Fold change of survived neurons compared to neurons grown without growth factors ([2]; Table 4, exp1, 1000 ng/ml): 1.12 fold; Fold change of survived neurons compared to neurons grown without growth factors ([2]; Table 4, exp2, 1 ng/ml): 1.16 fold; Fold change of survived neurons compared to neurons grown without growth factors ([2]; Table 4, exp2, 10 ng/ml): 1.32 fold; Fold change of survived neurons compared to neurons grown without growth factors ([2]; Table 4, exp2, 100 ng/ml): 1.27 fold; Fold change of survived neurons compared to neurons grown without growth factors ([2]; Table 4, exp2, 1000 ng/ml): 1.37 fold; Fold change of survived neurons compared to neurons grown without growth factors ([2]; Table 4, exp3, 1 ng/ml): 1.07 fold; Fold change of survived neurons compared to neurons grown without growth factors ([2]; Table 4, exp3, 10 ng/ml): 1.26 fold; Fold change of survived neurons compared to neurons grown without growth factors ([2]; Table 4, exp3, 100 ng/ml): 1.15 fold; Fold change of survived neurons compared to neurons grown without growth factors ([2]; Table 4, exp3, 1000 ng/ml): 1.34 fold |
